For 1 compound, IC50 results are on record in article PMC10761647, “β-carboline derivative Z86 attenuates colorectal cancer cell proliferation and migration by directly targeting PI3K” (Natural Products and Bioprospecting, 2024).

pIC50: −log10 of the molar value.

This assay addresses T1, PI3Kα (Homo sapiens, UniProt P42336).
T1 construct: gene PIK3CA
Description: PI3-Kinase Activity ELISA (PIP3 production) with purified PI3Kα; supported by CETSA and DARTS in HCT116 and SW480 cells/lysates. In kind it is biochemical. (In general: ELISA stands for enzyme-linked immunosorbent assay.)

T1 sequence (P42336 whole entry): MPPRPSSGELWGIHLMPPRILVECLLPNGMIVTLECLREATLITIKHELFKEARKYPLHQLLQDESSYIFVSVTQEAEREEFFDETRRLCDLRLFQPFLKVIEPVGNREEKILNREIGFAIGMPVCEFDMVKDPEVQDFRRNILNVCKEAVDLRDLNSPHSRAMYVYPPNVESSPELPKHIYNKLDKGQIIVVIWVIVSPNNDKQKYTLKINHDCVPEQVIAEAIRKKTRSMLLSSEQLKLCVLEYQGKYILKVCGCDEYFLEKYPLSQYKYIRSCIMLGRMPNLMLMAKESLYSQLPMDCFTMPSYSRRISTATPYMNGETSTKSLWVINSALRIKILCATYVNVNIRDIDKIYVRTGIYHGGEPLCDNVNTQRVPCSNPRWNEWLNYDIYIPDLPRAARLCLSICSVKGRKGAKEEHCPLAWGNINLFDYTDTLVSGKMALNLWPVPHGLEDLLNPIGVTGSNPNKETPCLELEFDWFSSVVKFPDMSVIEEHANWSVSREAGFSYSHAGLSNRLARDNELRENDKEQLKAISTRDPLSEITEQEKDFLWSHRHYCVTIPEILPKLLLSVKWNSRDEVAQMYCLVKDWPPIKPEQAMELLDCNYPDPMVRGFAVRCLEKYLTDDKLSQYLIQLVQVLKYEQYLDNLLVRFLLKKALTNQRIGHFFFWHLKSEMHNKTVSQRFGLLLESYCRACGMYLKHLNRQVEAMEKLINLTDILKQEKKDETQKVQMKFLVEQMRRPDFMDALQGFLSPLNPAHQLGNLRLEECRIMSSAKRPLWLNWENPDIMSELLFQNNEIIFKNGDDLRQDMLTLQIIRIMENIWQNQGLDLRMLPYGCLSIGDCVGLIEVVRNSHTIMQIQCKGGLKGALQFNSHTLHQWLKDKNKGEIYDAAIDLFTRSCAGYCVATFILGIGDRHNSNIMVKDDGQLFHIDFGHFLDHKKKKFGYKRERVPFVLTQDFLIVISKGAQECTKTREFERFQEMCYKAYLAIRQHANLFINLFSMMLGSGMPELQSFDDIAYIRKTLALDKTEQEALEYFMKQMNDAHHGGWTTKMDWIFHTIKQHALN
T1 sequence (P27986 2-724 partner): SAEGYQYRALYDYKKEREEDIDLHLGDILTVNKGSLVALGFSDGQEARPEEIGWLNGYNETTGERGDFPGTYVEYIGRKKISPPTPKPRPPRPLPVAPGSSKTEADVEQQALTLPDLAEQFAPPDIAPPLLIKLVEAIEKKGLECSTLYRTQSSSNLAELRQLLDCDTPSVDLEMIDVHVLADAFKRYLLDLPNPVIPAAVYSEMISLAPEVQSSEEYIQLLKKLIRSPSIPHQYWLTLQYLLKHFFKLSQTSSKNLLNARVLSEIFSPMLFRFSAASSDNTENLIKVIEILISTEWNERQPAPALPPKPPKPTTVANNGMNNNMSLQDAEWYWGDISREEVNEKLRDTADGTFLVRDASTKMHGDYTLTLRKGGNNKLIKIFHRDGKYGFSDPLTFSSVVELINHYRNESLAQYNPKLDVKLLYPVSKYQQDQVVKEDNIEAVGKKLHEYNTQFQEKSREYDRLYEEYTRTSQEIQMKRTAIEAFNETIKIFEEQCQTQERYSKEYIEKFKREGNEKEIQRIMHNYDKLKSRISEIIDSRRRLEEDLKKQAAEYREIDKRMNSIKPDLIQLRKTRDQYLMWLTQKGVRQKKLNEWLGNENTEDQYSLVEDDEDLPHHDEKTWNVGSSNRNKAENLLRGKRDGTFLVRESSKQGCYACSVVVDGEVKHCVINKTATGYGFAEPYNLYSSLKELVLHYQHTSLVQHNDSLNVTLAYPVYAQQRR

By pIC50 is commonly meant the IC50 on a negative log10 scale, so that one unit is a factor of ten. For `CCn1c2ccccc2c2cc(C(=O)OC(C)C)nc(-c3cccc4ccccc34)c21` [Z86, isopropyl 9-ethyl-1-(naphthalen-1-yl)-9 H-pyrido[3,4-b] indole-3-carboxylate], the pIC50 was 5.37.
